≈ marks a conversion by molar mass, not a printed value.
How the values were obtained:
[1] = system: P. falciparum K1 strain (Thailand resistant to chloroquine); test: semiautomated microdilution assay, [3H]-hypoxanthine incorporation, K1 strain; format: cell-based, Plasmodium falciparum; settings: K1 strain, 72 h incubation
Description: (§1) Various OZ compounds were tested by the semiautomated microdilution assay against intraerythrocytic forms of Plasmodium falciparum derived from asynchronous stock cultures.
(§2) Fifty percent inhibitory concentration (IC50) were estimated by Logit regression analysis.

[2] = system: P. falciparum NF54 strain (sensitive to standard antimalarials); test: semiautomated microdilution assay, [3H]-hypoxanthine incorporation, NF54 strain; format: cell-based, Plasmodium falciparum; settings: NF54 strain, 72 h incubation
Description: as §1, §2

[3] = system: ANKA strain of P. berghei; test: single dose STI in vivo screen in infected mice; parameters: species or system Plasmodium berghei; settings: for Activity (%) po / Activity (%) sc / Activity (%) SSVpo / Activity (%) 3 mg/kg SSV po / Activity (%) 10 mg/kg SSV po: percent reduction in parasitemia day 3 post-infection; for Activity (%) po / Survival (days) po: single 10 mg/kg po in 3% ethanol and 7% Tween 80; for Activity (%) po / Activity (%) sc / Activity (%) SSVpo: mice; for Activity (%) sc / Survival (days) sc: single 10 mg/kg sc in 3% ethanol and 7% Tween 80; for Activity (%) SSVpo: single po dose in standard suspending vehicle (SSV); for Survival (days) po / Survival (days) sc / Survival (days) SSVpo: untreated control 5.6 ± 0.3; for Survival (days) SSVpo: single po dose in SSV; for Activity (%) 3 mg/kg SSV po / Survival (days) 3 mg/kg SSV po: single 3 mg/kg po in SSV; for Activity (%) 10 mg/kg SSV po / Survival (days) 10 mg/kg SSV po: single 10 mg/kg po in SSV
Description: In the single dose STI in vivo screen, Moro SPF or NMRI mice infected with the ANKA strain of P. berghei (groups of 3-5 mice) were treated on day one post-infection with trioxolanes dissolved or suspended in 3% ethanol and 7% Tween 80. […] SSV consists of 0.5% w/v CMC, 0.5% v/v benzyl alcohol, 0.4% v/v Tween 80, and 0.9% w/v sodium chloride in water. Antimalarial activity was measured by percent reduction in parasitemia on day three post-infection and survival times compared to an untreated control group. Survival to day 30 post-infection is considered to be a cure. […] Other factors influencing antimalarial activity include the stability of carbon radicals formed by β-scission subsequent to the initial electron transfer to the peroxide bond and the influence of steric effects remote from the peroxide bond on the interactions between carbon radicals and potential drug targets.

Structure (SMILES)	IC50 (ng/ml) K1 [1] [ng/mL]	IC50 (ng/ml) NF54 [2] [ng/mL]	Activity (%) po [3]	Activity (%) sc [3]	Activity (%) 3 mg/kg SSV po [3] [%]	Activity (%) 10 mg/kg SSV po [3]	Survival (days) 10 mg/kg SSV po [3]	other results
O=C1c2ccccc2C(=O)N1CC[C@H]1CC[C@]2(CC1)OOC1(O2)C2CC3CC(C2)CC1C3 (stereo partly shown) [OZ215]	6.4 (≈ 14.6 nM)	7.3 (≈ 16.7 nM)	96%	39%				Activity (%) SSVpo [3]: 25%; Survival (days) po [3]: 9.7 days; Survival (days) sc [3]: 7.0 days; Survival (days) SSVpo [3]: 6.3 days
CN(C)S(=O)(=O)N1CCC2(CC1)OOC1(O2)C2CC3CC(C2)CC1C3 (stereo not shown) [OZ190]	0.16 (≈ 0.43 nM)	1.0 (≈ 2.68 nM)	98%	2%				Activity (%) SSVpo [3]: 78%; Survival (days) po [3]: 8.7 days; Survival (days) sc [3]: 5.7 days; Survival (days) SSVpo [3]: 7.7 days
C1CCC2(CC1)OOC1(CCC3(CC1)OOC1(CCCCC1)O3)O2 (stereo not shown) [OZ09]	32 (≈ 94 nM)	39 (≈ 115 nM)	0%	81%				Survival (days) po [3]: 5.0 days; Survival (days) sc [3]: 6.3 days
CC(C)(C)CC(=O)N[C@H]1CC[C@]2(CC1)OOC1(O2)C2CC3CC(C2)CC1C3 (stereo partly shown) [OZ195]	2.2 (≈ 5.83 nM)	3.7 (≈ 9.8 nM)						
NC(=O)c1cn(C[C@H]2CC[C@]3(CC2)OO[C@]2(O3)C3CC4CC(C3)CC2C4)cn1 [OZ320]	0.68 (≈ 1.75 nM)				92	99.76%	10.4 days	Survival (days) 3 mg/kg SSV po [3]: 11.8 days
O=S(=O)([O-])OC1CCC2(CC1)OOC1(O2)C2CC3CC(C2)CC1C3.[Na+] (stereo not shown) [OZ65]	57	65	0%	1%				Survival (days) po [3]: 5.0/NA/5.0 days; Survival (days) sc [3]: 5.0/NA/5.0 days
NC(=O)c1ccc(NC[C@H]2CC[C@]3(CC2)OOC2(O3)C3CC4CC(C3)CC2C4)cc1 (stereo partly shown) [OZ286]	0.94 (≈ 2.28 nM)				60		8.7 days	
O=CNCC(=O)NC[C@H]1CC[C@]2(CC1)OO[C@]1(O2)C2CC3CC(C2)CC1C3 [OZ322]	0.90 (≈ 2.38 nM)				61	98%	10.0 days	
O=C(NC[C@H]1CC[C@]2(CC1)OO[C@]1(O2)C2CC3CC(C2)CC1C3)c1cccnc1 [OZ273]	0.97 (≈ 2.43 nM)				64			
CN(C)C(=O)N1CCC2(CC1)OOC1(O2)C2CC3CC(C2)CC1C3 (stereo not shown) [OZ133]	0.70 (≈ 2.08 nM)		94%	72%				Activity (%) SSVpo [3]: 97%; Survival (days) po [3]: 7.0 days; Survival (days) sc [3]: 7.0 days; Survival (days) SSVpo [3]: 7.3 days
NC(=O)N1CCC2(CC1)OOC1(O2)C2CC3CC(C2)CC1C3 (stereo not shown) [OZ199]	0.69 (≈ 2.24 nM)							
OC1(Cc2nc3ccccc3s2)CCC2(CC1)OOC1(O2)C2CC3CC(C2)CC1C3 (stereo not shown) [OZ276]		0.94 (≈ 2.2 nM)				17/ND %	7.3/ND days	
Nc1nccnc1C(=O)NC[C@H]1CC[C@]2(CC1)OO[C@]1(O2)C2CC3CC(C2)CC1C3 [OZ330]	0.55 (≈ 1.33 nM)				82	99.96%		
NCC[C@H]1CC[C@]2(CC1)OOC1(O2)C2CC3CC(C2)CC1C3 (stereo partly shown) [OZ229]	0.24 (≈ 0.781 nM)	0.23 (≈ 0.748 nM)						
C[C@H](N)C(=O)NC[C@H]1CC[C@]2(CC1)OO[C@]1(O2)C2CC3CC(C2)CC1C3 [OZ335]		0.28 (≈ 0.768 nM)			97	99.95%	9.2 days	
CCOC(=O)CNC[C@H]1CC[C@]2(CC1)OO[C@]1(O2)C2CC3CC(C2)CC1C3 [OZ290]	0.42 (≈ 1.11 nM)				95		9.0 days	
CCOC(=O)NC[C@H]1CC[C@]2(CC1)OO[C@]1(O2)C2CC3CC(C2)CC1C3 [OZ289]		0.56 (≈ 1.53 nM)			92			

Structure (SMILES)	IC50 (ng/ml) K1 [1] [ng/mL]	IC50 (ng/ml) NF54 [2] [ng/mL]	Activity (%) po [3]	Activity (%) sc [3]	Activity (%) 3 mg/kg SSV po [3] [%]	Activity (%) 10 mg/kg SSV po [3]	Survival (days) 10 mg/kg SSV po [3]	other results
O=C(Cn1ccnc1)N1CCC2(CC1)OOC1(O2)C2CC3CC(C2)CC1C3 (stereo not shown) [OZ103]		0.17 (≈ 0.455 nM)	86%	87%				Activity (%) SSVpo [3]: 63%; Survival (days) po [3]: 7.3 days; Survival (days) sc [3]: 7.3 days; Survival (days) SSVpo [3]: 6.7 days
NC(=O)[C@@H]1CCCN1C[C@H]1CC[C@]2(CC1)OO[C@]1(O2)C2CC3CC(C2)CC1C3 [OZ327]	0.85 (≈ 2.18 nM)				72	97%	9.8 days	
O=C1CCC(=O)N1C[C@H]1CC[C@]2(CC1)OOC1(O2)C2CC3CC(C2)CC1C3 (stereo partly shown) [OZ197]	1.0 (≈ 2.66 nM)	2.0 (≈ 5.33 nM)						
c1cnc(OC[C@H]2CC[C@]3(CC2)OO[C@]2(O3)C3CC4CC(C3)CC2C4)nc1 [OZ325]	0.62 (≈ 1.66 nM)				30	99.43%	8.8 days	
CCOC(=O)c1ccc([C@H]2CC[C@]3(CC2)OOC2(O3)C3CC4CC(C3)CC2C4)cc1 (stereo partly shown) [OZ164]			11%	7%				IC50 ([1]; Plasmodium falciparum, read-out: IC50 (ng/ml) K1): 59 ng/mL (≈ 143 nM); Activity (%) SSVpo [3]: 0%; Survival (days) SSVpo [3]: 5.7 days
c1cnc(NC[C@H]2CC[C@]3(CC2)OO[C@]2(O3)C3CC4CC(C3)CC2C4)nc1 [OZ326]	0.65 (≈ 1.75 nM)				7	80%	7.4 days	
CC(C)N(C(=O)N1CCC2(CC1)OOC1(O2)C2CC3CC(C2)CC1C3)C(C)C (stereo not shown) [OZ194]		6.6 (≈ 16.8 nM)	87%	99.95%				Activity (%) SSVpo [3]: 73%; Survival (days) po [3]: 8.3 days; Survival (days) sc [3]: 20.3 days; Survival (days) SSVpo [3]: 8.0 days
O=c1ccn(C[C@H]2CC[C@]3(CC2)OO[C@]2(O3)C3CC4CC(C3)CC2C4)cc1 [OZ302]		2.9 (≈ 7.81 nM)			88	99.60%		
O=C([C@H]1CC[C@@]2(CC1)OO[C@@]1(O2)C2CC3CC(C2)CC1C3)N1CCNCC1 [OZ365]	0.79 (≈ 2.1 nM)				92	99.57%	8.0/8.0 days	Survival (days) 3 mg/kg SSV po [3]: 8.0/8.0 days
NCCNC(=O)C[C@H]1CC[C@]2(CC1)OO[C@]1(O2)C2CC3CC(C2)CC1C3 [OZ305]	1.8 (≈ 4.94 nM)				96	99.93%	9.2 days	
C1CCC(NC2CCC3(CC2)OOC2(O3)C3CC4CC(C3)CC2C4)CC1 (stereo not shown) [OZ162]	0.50 (≈ 1.38 nM)	0.71 (≈ 1.96 nM)						
O=C1c2ccccc2C(=O)N1C[C@H]1CC[C@]2(CC1)OOC1(O2)C2CC3CC(C2)CC1C3 (stereo partly shown) [OZ146]			62%	91%				Activity (%) SSVpo [3]: 40%; Survival (days) SSVpo [3]: 6.3 days
O=CN1CCN(C[C@H]2CC[C@]3(CC2)OO[C@]2(O3)C3CC4CC(C3)CC2C4)CC1 [OZ303]					69	99.01%	8.6 days	
N[C@H]1CC[C@]2(CC1)OOC1(O2)C2CC3CC(C2)CC1C3 (stereo partly shown) [OZ137]			0%	61%				Activity (%) SSVpo [3]: 6%; Survival (days) SSVpo [3]: 6.3 days
O=C1c2ccccc2C(=O)N1[C@H]1CC[C@]2(CC1)OOC1(O2)C2CC3CC(C2)CC1C3 (stereo partly shown) [OZ136]			0/0/0%	0/0/0%				Activity (%) SSVpo [3]: 0/0/0%; Survival (days) po [3]: 6.0/6.0/6.0 days; Survival (days) sc [3]: 6.0/6.0/6.0 days; Survival (days) SSVpo [3]: 6.0/6.0/6.0 days
Nc1ncccc1C(=O)NC[C@H]1CC[C@]2(CC1)OOC1(O2)C2CC3CC(C2)CC1C3 (stereo partly shown) [OZ284]					61	97%	9.0 days	
O=C(c1ccncc1)N1CCC2(CC1)OOC1(O2)C2CC3CC(C2)CC1C3 (stereo not shown) [OZ100]			61%	80%				Activity (%) SSVpo [3]: 36%; Survival (days) po [3]: 6.7 days; Survival (days) sc [3]: 7.0 days; Survival (days) SSVpo [3]: 6.3 days

Source: US6906205B2, “Spiro and dispiro 1,2,4-trioxolane antimalarials” (Medicines for Malaria Venture MMV, priority 2002, dated 2005)
